From US20240382484A1, “COMPOSITION FOR TREATING, PREVENTING, OR AMELIORATING MELANOMA AND METHOD THEREOF” (Thomas Jefferson University, priority 2021, published 2024)

Key:
[1] = system: 1014 cells; assay: 1014 cell growth for 7 days monitored by IncuCyte; type: cell-based, mouse; settings: in vitro
[2] = system: Nras Q61K mouse melanoma isografts of 1014 cells; assay: 1014 allograft model in immunocompetent B6 mice; type: in vivo; settings: trametinib chow and/or GSK2334470 injection three times per week
[3] = system: WM1361A and WM1366 cells; assay: Reverse-phase protein array and immunoblot analysis; type: cell-based, human; settings: immunoblot, 24 hours
Description: FIG. 15A: Reverse-phase protein array analysis of WM1361A and WM1366 cells. The cells were treated with vehicle (DMSO), either pharmacologic inhibition or genetic depletion of PDPK1 only, MEK inhibitor only and the combinations as indicated. All samples were harvested in three biological independent experiments. Proteins levels were normalized to the mean. Antibodies were limited to those that were differentially expressed (BHFDR <0.05) in at least three of the four comparisons between combination and control samples. FIG. 15B: WM1361A and WM1366 cells were treated with PD0325901 and GSK2334470 as indicated for 24 hours. Cell lysates were applied to immunoblot with indicated antibodies. FIG. 15C: WM1361A and WM1366 parental clones (iCas9) and PDPK1-depleted clones by two individual sgRNAs (KO1 and K02) treated with trametinib as indicated for 24 hours. Cell lysates were applied to immunoblot with indicated antibodies.
WM1361A and WM1366 cells were treated with vehicle control, PDPK1i (GSK2334470), MEKi (trametinib) or combined PDPK1i and MEKi for 48 hours. WM1361A and WM1366 cells were also transfected with ON-target control siRNAs or PDPK1 siRNAs, and then treated with or without trametinib for further 48 hours. Cells were harvested, lysed and analyzed as described in Tibes et al. (Mol Cancer Ther 5, 2512-2521, 2006). […]

CC(=O)Nc1cccc(-n2c(=O)n(C3CC3)c(=O)c3c(Nc4ccc(I)cc4F)n(C)c(=O)c(C)c32)c1 [trametinib, N-(3-(3-cyclopropyl-5-((2-fluoro-4-iodophenyl)amino)-6,8-dimethyl-2,4,7-trioxo-3,4,6,7-tetrahydropyrido[4,3-d]pyrimidin-1(2H)-yl)phenyl)acetamide]
1014 cell proliferation [1]: suppressed
tumor growth [2]: modest delay of tumor growth

O=C(NOC[C@H](O)CO)c1ccc(F)c(F)c1Nc1ccc(I)cc1F [PD0325901, (R)—N-(2,3-dihydroxypropoxy)-3,4-difluoro-2-((2-fluoro-4-iodophenyl)amino)benzamide]
p-S6, second MEKi with PDPK1i or sgRNA PDPK1 depletion [3]: enhanced reduction
